± gives the expanded uncertainty stated by the source.
Assay: molar heat capacity at constant volume
Conditions: Fluid (supercritical or subcritical phases), Vacuum adiabatic calorimetry

CC(C)O [propan-2-ol]
Conditions	molar heat capacity at constant volume [J/K/mol]
501.94 K, Mass density=343.1 kg/m3	317.72 ± 9.6
502.03 K, Mass density=266.3 kg/m3	345.37 ± 10
502.04 K, Mass density=343.1 kg/m3	315.2 ± 9.4
502.13 K, Mass density=266.3 kg/m3	347.59 ± 10
502.13 K, Mass density=343.1 kg/m3	309.67 ± 9.3
502.22 K, Mass density=266.3 kg/m3	350.23 ± 11
502.22 K, Mass density=343.1 kg/m3	314.54 ± 9.4
502.31 K, Mass density=266.3 kg/m3	348.13 ± 10
502.32 K, Mass density=343.1 kg/m3	312.25 ± 9.4
502.41 K, Mass density=266.3 kg/m3	351.2 ± 11
502.41 K, Mass density=343.1 kg/m3	317.66 ± 9.6
502.5 K, Mass density=266.3 kg/m3	350.29 ± 11
502.5 K, Mass density=343.1 kg/m3	312.07 ± 9.4
502.6 K, Mass density=266.3 kg/m3	350.29 ± 11
502.6 K, Mass density=343.1 kg/m3	310.39 ± 9.3
503.92 K, Mass density=329.2 kg/m3	322.05 ± 9.7
504.02 K, Mass density=329.2 kg/m3	325.72 ± 9.8
504.11 K, Mass density=329.2 kg/m3	323.31 ± 9.7
504.3 K, Mass density=329.2 kg/m3	318.86 ± 9.6
504.37 K, Mass density=281.9 kg/m3	348.13 ± 10
504.46 K, Mass density=281.9 kg/m3	351.02 ± 11
504.5 K, Mass density=329.2 kg/m3	325.72 ± 9.8
504.56 K, Mass density=234.3 kg/m3	386.83 ± 12
504.56 K, Mass density=281.9 kg/m3	346.57 ± 10
504.59 K, Mass density=329.2 kg/m3	319.65 ± 9.6
504.65 K, Mass density=234.3 kg/m3	381.48 ± 11
504.65 K, Mass density=281.9 kg/m3	351.08 ± 11
504.74 K, Mass density=234.3 kg/m3	386.35 ± 12
504.74 K, Mass density=281.9 kg/m3	346.63 ± 10
504.84 K, Mass density=234.3 kg/m3	392.36 ± 12
504.84 K, Mass density=281.9 kg/m3	355.64 ± 11
504.93 K, Mass density=281.9 kg/m3	355.64 ± 11
504.97 K, Mass density=234.3 kg/m3	391.52 ± 12
504.98 K, Mass density=329.2 kg/m3	328.36 ± 9.9
505.02 K, Mass density=281.9 kg/m3	349.27 ± 10
505.08 K, Mass density=329.2 kg/m3	326.92 ± 9.8
505.12 K, Mass density=234.3 kg/m3	387.07 ± 12
505.12 K, Mass density=281.9 kg/m3	354.2 ± 11
505.21 K, Mass density=234.3 kg/m3	382.87 ± 11
505.21 K, Mass density=281.9 kg/m3	355.76 ± 11
505.21 K, Mass density=324.5 kg/m3	333.29 ± 10
505.27 K, Mass density=329.2 kg/m3	325.96 ± 9.8
505.3 K, Mass density=234.3 kg/m3	387.13 ± 12
505.3 K, Mass density=324.5 kg/m3	339.78 ± 10
505.37 K, Mass density=329.2 kg/m3	325.35 ± 9.8
505.4 K, Mass density=234.3 kg/m3	387.13 ± 12
505.49 K, Mass density=288.99 kg/m3	349.87 ± 11
505.58 K, Mass density=288.99 kg/m3	350.77 ± 11
505.58 K, Mass density=324.5 kg/m3	333.05 ± 10
505.68 K, Mass density=288.99 kg/m3	343.14 ± 10
505.68 K, Mass density=324.5 kg/m3	338.82 ± 10
505.77 K, Mass density=288.99 kg/m3	350.47 ± 11
505.77 K, Mass density=324.5 kg/m3	335.27 ± 10
505.77 K, Mass density=343.1 kg/m3	323.67 ± 9.7
505.86 K, Mass density=288.99 kg/m3	346.63 ± 10
505.86 K, Mass density=324.5 kg/m3	337.13 ± 10
505.86 K, Mass density=343.1 kg/m3	325.29 ± 9.8
505.96 K, Mass density=288.99 kg/m3	350.53 ± 11
505.96 K, Mass density=324.5 kg/m3	332.09 ± 10
505.96 K, Mass density=343.1 kg/m3	323.97 ± 9.7
506.05 K, Mass density=288.99 kg/m3	354.32 ± 11
506.05 K, Mass density=324.5 kg/m3	336.65 ± 10
506.05 K, Mass density=343.1 kg/m3	326.26 ± 9.8
506.14 K, Mass density=288.99 kg/m3	350.59 ± 11
506.14 K, Mass density=324.5 kg/m3	342.42 ± 10
506.14 K, Mass density=343.1 kg/m3	328.36 ± 9.9
506.24 K, Mass density=288.99 kg/m3	350.65 ± 11
506.24 K, Mass density=324.5 kg/m3	340.02 ± 10
506.24 K, Mass density=343.1 kg/m3	327.04 ± 9.8
506.33 K, Mass density=274 kg/m3	361.17 ± 11
506.33 K, Mass density=288.99 kg/m3	346.33 ± 10
506.33 K, Mass density=324.5 kg/m3	336.41 ± 10
506.33 K, Mass density=343.1 kg/m3	326.44 ± 9.8
506.42 K, Mass density=274 kg/m3	362.97 ± 11
506.42 K, Mass density=343.1 kg/m3	329.92 ± 9.9
506.43 K, Mass density=329.2 kg/m3	328.06 ± 9.9
506.52 K, Mass density=274 kg/m3	361.05 ± 11
506.52 K, Mass density=288.99 kg/m3	351.92 ± 11
506.52 K, Mass density=324.5 kg/m3	341.04 ± 10
506.52 K, Mass density=343.1 kg/m3	328.3 ± 9.9
506.53 K, Mass density=329.2 kg/m3	330.64 ± 9.9
506.61 K, Mass density=274 kg/m3	365.62 ± 11
506.61 K, Mass density=288.99 kg/m3	355.52 ± 11
506.61 K, Mass density=343.1 kg/m3	329.98 ± 9.9
506.62 K, Mass density=329.2 kg/m3	335.93 ± 10
506.7 K, Mass density=288.99 kg/m3	357.63 ± 11
506.7 K, Mass density=324.5 kg/m3	343.74 ± 10
506.72 K, Mass density=329.2 kg/m3	332.69 ± 10
506.8 K, Mass density=288.99 kg/m3	349.21 ± 10
506.8 K, Mass density=343.1 kg/m3	329.08 ± 9.9
506.82 K, Mass density=329.2 kg/m3	332.27 ± 10
506.89 K, Mass density=288.99 kg/m3	354.98 ± 11

— the NIST ThermoML archive (doi:10.1016/j.jct.2019.03.023)
